Assay results as given in patent US20240116910A1, “Heterocycles as WIP1 Inhibitors” (PMV Pharmaceuticals, Inc., priority 2022, published 2024).

How the values were obtained:
[1] = target: recombinant His-tag Wip1(2-420) protein (amino acids #2-420) (Homo sapiens (Human), UniProt O15297); assay: Wip1(2-420) phosphatase enzyme FDP assay; format: biochemical; conditions: fluorescein diphosphate (FDP) substrate, RT 2 hours, fluorescence Ex485/Em535; read-out: WIP1 (Truncated 2-420) FDP Assay: IC50
[2] = target: recombinant His-tag Wip1 full length protein (amino acids #1-605) (Homo sapiens (Human), UniProt O15297); assay: Wip1 full length phosphatase enzyme FDP assay; format: biochemical; conditions: fluorescein diphosphate (FDP) substrate, RT 2 hours, fluorescence Ex485/Em535
recombinant His-tag Wip1 full length protein (amino acids #1-605), sequence (O15297 whole entry): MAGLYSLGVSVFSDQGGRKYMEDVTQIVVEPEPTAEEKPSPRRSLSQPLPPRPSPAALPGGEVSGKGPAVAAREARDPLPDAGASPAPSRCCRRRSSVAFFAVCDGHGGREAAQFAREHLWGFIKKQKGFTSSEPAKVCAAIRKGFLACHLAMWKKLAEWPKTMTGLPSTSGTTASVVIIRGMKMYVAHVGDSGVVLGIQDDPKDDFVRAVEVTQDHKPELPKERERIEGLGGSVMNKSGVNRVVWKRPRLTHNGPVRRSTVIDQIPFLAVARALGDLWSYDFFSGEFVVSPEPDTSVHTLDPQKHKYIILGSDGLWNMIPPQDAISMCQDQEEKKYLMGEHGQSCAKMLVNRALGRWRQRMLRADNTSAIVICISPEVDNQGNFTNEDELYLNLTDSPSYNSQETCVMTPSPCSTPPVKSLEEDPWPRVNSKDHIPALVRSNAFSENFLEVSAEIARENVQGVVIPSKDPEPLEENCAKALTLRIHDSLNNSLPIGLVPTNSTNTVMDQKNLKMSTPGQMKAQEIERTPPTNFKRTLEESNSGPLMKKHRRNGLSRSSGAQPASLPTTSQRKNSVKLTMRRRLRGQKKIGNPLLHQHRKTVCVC

recombinant His-tag Wip1(2-420) protein (amino acids #2-420), sequence (O15297 2-420): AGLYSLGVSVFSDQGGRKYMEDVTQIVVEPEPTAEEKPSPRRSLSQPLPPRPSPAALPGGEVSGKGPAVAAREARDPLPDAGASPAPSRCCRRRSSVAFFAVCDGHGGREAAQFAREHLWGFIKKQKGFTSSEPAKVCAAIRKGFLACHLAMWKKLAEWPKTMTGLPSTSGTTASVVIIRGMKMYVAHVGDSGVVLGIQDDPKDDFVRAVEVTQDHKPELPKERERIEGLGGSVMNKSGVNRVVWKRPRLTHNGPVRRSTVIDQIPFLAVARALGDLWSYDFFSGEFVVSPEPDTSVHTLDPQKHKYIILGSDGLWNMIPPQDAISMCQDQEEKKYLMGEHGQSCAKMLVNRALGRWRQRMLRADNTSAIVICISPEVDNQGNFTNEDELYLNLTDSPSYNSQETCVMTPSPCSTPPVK

Row | SMILES | IC50 [1] [nM] | IC50 [2] [nM]
1 | Cc1ncc(Cl)cc1N[C@@H](C)c1ccc(C(=O)N[C@@H](CC2CCCC2)C(=O)NC2CC(C)C2)s1 (stereo partly drawn) [Compound 76, (2S)-2-({5-[(1S)-1-[(5-chloro-2-methylpyridin-3-yl)amino]ethyl]thiophen-2-yl}formamido)-3-cyclopentyl-N-(3-methylcyclobutyl)propanamide] | 7 | 9
2 | Cc1ncc(Cl)cc1N[C@H](C)c1ccc(C(=O)N[C@@H](CC2CCCC2)C(=O)NC2CC2(F)F)s1 (stereo partly drawn) [Compound 15, (2S)-2-({5-[(1R)-1-[(5-chloro-2-methylpyridin-3-yl)amino]ethyl]thiophen-2-yl}formamido)-3-cyclopentyl-N-(2,2-difluorocyclopropyl)propanamide] | 80 | 71
3 | CC[C@@H](Nc1cc(Cl)cnc1C)c1ccc(C(=O)N[C@@H](CC2CCCC2)C(=O)N[C@@H]2CC2(F)F)s1 [Compound 50, (2S)-2-({5-[(1R)-1-[(5-chloro-2-methylpyridin-3-yl)amino]propyl]thiophen-2-yl}formamido)-3-cyclopentyl-N-[(1R)-2,2-difluorocyclopropyl]propanamide] | 122 | 170
4 | C[C@H](Nc1ccc(F)c(Cl)c1)c1ccc(C(=O)N[C@@H](CC2CCCC2)C(=O)NC2CC2)s1 [Compound 6, 5-[(1S)-1-(3-chloro-4-fluoro-anilino)ethyl]-N-[(1S)-1-(cyclopentylmethyl)-2-(cyclopropylamino)-2-oxo-ethyl]thiophene-2-carboxamide] | 6 | 9
5 | COCCOc1ccc(NC(=O)[C@H](CC2CCCC2)NC(=O)c2ccc([C@H](C)Nc3cc(Cl)cnc3C)s2)cc1 [Compound 59, (2S)-2-({5-[(1S)-1-[(5-chloro-2-methylpyridin-3-yl)amino]ethyl]thiophen-2-yl}formamido)-3-cyclopentyl-N-[4-(2-methoxyethoxy)phenyl]propanamide] | 5 | 7
6 | Cc1ncc(Cl)cc1N[C@H](C)c1ccc(C(=O)N[C@@H](CC2CCCC2)C(=O)NC23CC(C2)C3)s1 [Compound 12, (2S)-N-{bicyclo[1.1.1]pentan-1-yl}-2-({5-[(1R)-1-[(5-chloro-2-methylpyridin-3-yl)amino]ethyl]thiophen-2-yl}formamido)-3-cyclopentylpropanamide] | 148 | 356
7 | Cc1ncc(Cl)cc1N[C@@H](C)c1ccc(C(=O)N[C@@H](CC2CCCC2)C(=O)N[C@H]2C[C@H](F)C2)s1 [Compound 29, (2S)-2-({5-[(1S)-1-[(5-chloro-2-methylpyridin-3-yl)amino]ethyl]thiophen-2-yl}formamido)-3-cyclopentyl-N-[(1r,3r)-3-fluorocyclobutyl]propanamide] | 3 | 7
8 | Cc1ncc(Cl)cc1N[C@@H](C)c1ccc(C(=O)N[C@@H](CC2CCCC2)C(=O)NC2COC2)s1 [Compound 27, (2S)-2-({5-[(1S)-1-[(5-chloro-2-methylpyridin-3-yl)amino]ethyl]thiophen-2-yl}formamido)-3-cyclopentyl-N-(oxetan-3-yl)propanamide] | 6 | 10
9 | Cc1cc(NC(=O)[C@H](CC2CCCC2)NC(=O)c2ccc([C@H](C)Nc3cc(Cl)cnc3C)s2)cc(C)n1 [Compound 62, (2S)-2-({5-[(1S)-1-[(5-chloro-2-methylpyridin-3-yl)amino]ethyl]thiophen-2-yl}formamido)-3-cyclopentyl-N-(2,6-dimethylpyridin-4-yl)propanamide] | 6 | 10
10 | Cc1ncc(Cl)cc1N[C@H](C)c1ccc(C(=O)N[C@@H](CC2CCCC2)C(=O)N[C@H]2CC2(F)F)s1 [Compound 21, (2S)-2-({5-[(1R)-1-[(5-chloro-2-methylpyridin-3-yl)amino]ethyl]thiophen-2-yl}formamido)-3-cyclopentyl-N-[(1S)-2,2-difluorocyclopropyl]propanamide] | 109 | 139
11 | Cc1ncc(Cl)cc1NC(C)(C)c1ccc(C(=O)N[C@@H](CC2CCCC2)C(=O)NC2CC2)s1 [Compound 55, (2S)-2-[(5-{2-[(5-chloro-2-methylpyridin-3-yl)amino]propan-2-yl}thiophen-2-yl)formamido]-3-cyclopentyl-N-cyclopropylpropanamide] | 29 | 36
12 | C[C@@H](c1ccc(C(=O)N[C@@H](CC2CCCC2)C(=O)NC2CC2)s1)N1CCc2cc(F)c(Cl)cc21 [Compound 56, (2S)-2-({5-[(1S)-1-(6-chloro-5-fluoro-2,3-dihydro-1H-indol-1-yl)ethyl]thiophen-2-yl}formamido)-3-cyclopentyl-N-cyclopropylpropanamide] | 39 | 50
13 | Cc1ncc(Cl)cc1N[C@@H](C)c1ccc(C(=O)N[C@@H](CC2CCCC2)C(=O)N[C@@H]2CC2(F)F)s1 [Compound 24, (2S)-2-({5-[(1S)-1-[(5-chloro-2-methylpyridin-3-yl)amino]ethyl]thiophen-2-yl}formamido)-3-cyclopentyl-N-[(1R)-2,2-difluorocyclopropyl]propanamide] | 8 | 8
14 | Cc1ncc(Cl)cc1N[C@@H](C)c1ccc(C(=O)N[C@@H](CC2CCCC2)C(=O)N[C@H]2C[C@@H](F)C2)s1 [Compound 28, (2S)-2-({5-[(1S)-1-[(5-chloro-2-methylpyridin-3-yl)amino]ethyl]thiophen-2-yl}formamido)-3-cyclopentyl-N-[(1s,3s)-3-fluorocyclobutyl]propanamide] | 4 | 7
15 | CC[C@H](Nc1cc(Cl)cnc1C)c1ccc(C(=O)N[C@@H](CC2CCCC2)C(=O)NC2CC2)s1 [Compound 37, (2S)-2-({5-[(1S)-1-[(5-chloro-2-methylpyridin-3-yl)amino]propyl]thiophen-2-yl}formamido)-3-cyclopentyl-N-cyclopropylpropanamide] | 6 | 9
16 | C[C@H](c1ccc(C(=O)N[C@@H](CC2CCCC2)C(=O)NC2CC2)s1)N1CCc2cc(F)c(Cl)cc21 [Compound 57, (2S)-2-({5-[(1R)-1-(6-chloro-5-fluoro-2,3-dihydro-1H-indol-1-yl)ethyl]thiophen-2-yl}formamido)-3-cyclopentyl-N-cyclopropylpropanamide] | 12 | 16
17 | Cc1cc(NC(=O)[C@H](CC2CCCC2)NC(=O)c2cnc([C@H](C)Nc3cccc(Cl)c3)s2)ccn1 [Compound 119, (2S)-2-({2-[(1S)-1-[(3-chlorophenyl)amino]ethyl]-1,3-thiazol-5-yl}formamido)-3-cyclopentyl-N-(2-methylpyridin-4-yl)propanamide] | 70 | 115
18 | Cc1ncc(Cl)cc1N[C@@H](C)c1ccc(C(=O)N[C@@H](CC2CCCC2)C(=O)NC2CC2(F)F)s1 (stereo partly drawn) [Compound 14, (2S)-2-({5-[(1S)-1-[(5-chloro-2-methylpyridin-3-yl)amino]ethyl]thiophen-2-yl}formamido)-3-cyclopentyl-N-(2,2-difluorocyclopropyl)propanamide] | 7 | 6
19 | Cc1ccc(NC(=O)[C@H](CC2CCCC2)NC(=O)c2ccc([C@H](C)Nc3cc(Cl)cnc3C)s2)cn1 [Compound 53, (2S)-2-({5-[(1S)-1-[(5-chloro-2-methylpyridin-3-yl)amino]ethyl]thiophen-2-yl}formamido)-3-cyclopentyl-N-(6-methylpyridin-3-yl)propanamide] | 5 | 8
20 | CNC(=O)C12CC(NC(=O)[C@H](CC3CCCC3)NC(=O)c3ccc([C@H](C)Nc4cc(Cl)cnc4C)s3)(C1)C2 [Compound 44, 3-[(2S)-2-({5-[(1S)-1-[(5-chloro-2-methylpyridin-3-yl)amino]ethyl]thiophen-2-yl}formamido)-3-cyclopentylpropanamido]-N-methylbicyclo[1.1.1]pentane-1-carboxamide] | 12 | 14
21 | CC[C@@H](Nc1cc(Cl)cnc1C)c1ccc(C(=O)N[C@@H](CC2CCCC2)C(=O)NC2CC2)s1 [Compound 39, (2S)-2-({5-[(1R)-1-[(5-chloro-2-methylpyridin-3-yl)amino]propyl]thiophen-2-yl}formamido)-3-cyclopentyl-N-cyclopropylpropanamide] | 122 | 332
22 | C[C@@H](Nc1cccc(Cl)c1)c1ncc(C(=O)N[C@@H](CC2CCCC2)C(=O)NC2CC2)s1 [Compound 125, (2S)-2-({2-[(1R)-1-[(3-chlorophenyl)amino]ethyl]-1,3-thiazol-5-yl}formamido)-3-cyclopentyl-N-cyclopropylpropanamide] | 59 | 16
23 | Cc1ncc(Cl)cc1N[C@@H](C)c1ccc(C(=O)N[C@@H](CC2CCCC2)C(=O)Nc2ccc3c(c2)CCCN3C)s1 [Compound 168, (2S)-2-({5-[(1S)-1-[(5-chloro-2-methylpyridin-3-yl)amino]ethyl]thiophen-2-yl}formamido)-3-cyclopentyl-N-(1-methyl-1,2,3,4-tetrahydroquinolin-6-yl)propanamide] | 11 | 15
24 | Cc1ncc(Cl)cc1N[C@@H](Cc1cnn(C)c1)c1ccc(C(=O)N[C@@H](CC2CCCC2)C(=O)NC2CC2)s1 [Compound 171, (2S)-2-({5-[(1S)-1-[(5-chloro-2-methylpyridin-3-yl)amino]-2-(1-methyl-1H-pyrazol-4-yl)ethyl]thiophen-2-yl}formamido)-3-cyclopentyl-N-cyclopropylpropanamide] | 7 | 10
25 | Cc1ncc(Cl)cc1N[C@@H](C)c1ccc(C(=O)N[C@@H](CC2CCCC2)C(=O)NC23CC(F)(C2)C3)s1 [Compound 16, (2S)-2-({5-[(1S)-1-[(5-chloro-2-methylpyridin-3-yl)amino]ethyl]thiophen-2-yl}formamido)-3-cyclopentyl-N-{3-fluorobicyclo[1.1.1]pentan-1-yl}propanamide] | 7 | 10
